In ChEMBL document CHEMBL5338739, “Discovery of Dual Lysine Methyltransferase G9a and EZH2 Inhibitors with In Vivo Efficacy against Malignant Rhabdoid Tumor” (J Med Chem, 2023):
The source made the active and inactive calls. The calls are words filed in the database; no cut-off is given here.

Columns and labels:
[1] = test system: RD; assay: Cytotoxicity against human RD cells assessed as reduction in cell viability incubated for 72 hrs by MTT assay; type: functional
[2] = test system: SW982; assay: Cytotoxicity against human SW982 cells assessed as reduction in cell viability incubated for 72 hrs by MTT assay; type: functional
[3] = test system: RD; assay: Antiproliferative activity against human RD cells assessed as reduction in clone formation rate at 5 uM for 1 to 2 weeks with fresh medium replacement for every 2 to 3 days by crystal violet staining based microscopic analysis; type: functional, cell-based; settings: time 1-2 weeks
[4] = test system: SW982; assay: Antiproliferative activity against human SW982 cells assessed as reduction in clone formation rate at 5 uM for 1 to 2 weeks with fresh medium replacement for every 2 to 3 days in presence of tazemetostat by crystal violet staining based microscopic analysis; type: functional, cell-based; settings: time 1-2 weeks
[5] = test system: SW982; assay: Antiproliferative activity against human SW982 cells assessed as reduction in clone formation rate at 5 uM for 1 to 2 weeks with fresh medium replacement for every 2 to 3 days by crystal violet staining based microscopic analysis; type: functional, cell-based; settings: time 1-2 weeks
[6] = test system: RD; assay: Antiproliferative activity against human RD cells assessed as reduction in clone formation rate at 5 uM for 1 to 2 weeks with fresh medium replacement for every 2 to 3 days in presence of tazemetostat by crystal violet staining based microscopic analysis; type: functional, cell-based; settings: time 1-2 weeks
[7] = biological target: T1, Histone-lysine N-methyltransferase EHMT2 (Homo sapiens, UniProt Q96KQ7); assay: Inhibition of human recombinant EHMT2 G9a using SAM as substrate incubated for 1 hr by microplate luminescence based HMT assay
T1 sequence (Q96KQ7 whole entry): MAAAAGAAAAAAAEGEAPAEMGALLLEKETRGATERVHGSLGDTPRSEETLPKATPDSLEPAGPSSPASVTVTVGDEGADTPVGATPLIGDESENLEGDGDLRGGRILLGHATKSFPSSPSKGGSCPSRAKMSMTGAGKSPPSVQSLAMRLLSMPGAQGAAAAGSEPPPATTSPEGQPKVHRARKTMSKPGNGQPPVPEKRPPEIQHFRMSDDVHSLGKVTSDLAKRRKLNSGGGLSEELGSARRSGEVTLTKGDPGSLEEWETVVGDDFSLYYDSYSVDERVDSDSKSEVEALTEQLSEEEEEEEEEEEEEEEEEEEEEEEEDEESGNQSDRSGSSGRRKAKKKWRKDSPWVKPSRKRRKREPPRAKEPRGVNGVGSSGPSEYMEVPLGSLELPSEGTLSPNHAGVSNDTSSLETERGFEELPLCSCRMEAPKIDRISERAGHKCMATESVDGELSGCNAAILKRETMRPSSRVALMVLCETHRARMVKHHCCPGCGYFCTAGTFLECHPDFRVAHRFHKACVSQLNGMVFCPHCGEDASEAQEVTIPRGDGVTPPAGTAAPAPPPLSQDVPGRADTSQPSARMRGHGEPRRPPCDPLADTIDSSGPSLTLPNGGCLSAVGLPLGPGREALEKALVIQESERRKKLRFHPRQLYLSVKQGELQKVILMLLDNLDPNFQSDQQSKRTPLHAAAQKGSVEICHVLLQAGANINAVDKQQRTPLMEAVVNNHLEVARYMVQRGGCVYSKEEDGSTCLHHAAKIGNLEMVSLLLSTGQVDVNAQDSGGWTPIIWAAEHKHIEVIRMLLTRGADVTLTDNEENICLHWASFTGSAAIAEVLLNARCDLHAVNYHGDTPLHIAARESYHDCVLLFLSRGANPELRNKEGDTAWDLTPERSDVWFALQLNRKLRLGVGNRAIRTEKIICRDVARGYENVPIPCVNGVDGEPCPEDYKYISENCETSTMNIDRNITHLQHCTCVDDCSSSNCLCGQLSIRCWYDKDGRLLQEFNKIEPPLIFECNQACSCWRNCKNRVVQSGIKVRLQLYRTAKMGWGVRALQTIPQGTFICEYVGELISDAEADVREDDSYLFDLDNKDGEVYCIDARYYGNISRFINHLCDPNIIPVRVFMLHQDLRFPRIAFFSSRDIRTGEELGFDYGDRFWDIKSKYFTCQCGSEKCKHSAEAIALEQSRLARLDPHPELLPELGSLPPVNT

[8] = biological target: Histone-lysine N-methyltransferase EZH2 (Homo sapiens, UniProt Q15910); assay: Inhibition of human EZH2 using SAM as substrate incubated for 1 hr by microplate luminescence based HMT assay
[9] = test system: Mus musculus; assay: Downregulation of H3K27me3 expression in tumor tissue of BALB/c nude mouse xenografted with human RD cells at 20 mg/kg, ip administered for 5 consecutive days followed by 2 rest days for 3 weeks by Western blotting analysis; type: functional, organism-based
[10] = test system: Mus musculus; assay: Downregulation of H3K9me2 expression in tumor tissue of BALB/c nude mouse xenografted with human RD cells at 20 mg/kg, ip administered for 5 consecutive days followed by 2 rest days for 3 weeks by Western blotting analysis; type: functional, organism-based
[11] = test system: RD; assay: Antitumor activity against human RD cells xenografted in BALB/c nude mouse assessed as tumor growth inhibition at 20 mg/kg, ip administered for 5 consecutive days followed by 2 rest days for 3 weeks; settings: 504 h, read-out: TGI

Chain of Histone-lysine N-methyltransferase EZH2 (Q15910 whole entry): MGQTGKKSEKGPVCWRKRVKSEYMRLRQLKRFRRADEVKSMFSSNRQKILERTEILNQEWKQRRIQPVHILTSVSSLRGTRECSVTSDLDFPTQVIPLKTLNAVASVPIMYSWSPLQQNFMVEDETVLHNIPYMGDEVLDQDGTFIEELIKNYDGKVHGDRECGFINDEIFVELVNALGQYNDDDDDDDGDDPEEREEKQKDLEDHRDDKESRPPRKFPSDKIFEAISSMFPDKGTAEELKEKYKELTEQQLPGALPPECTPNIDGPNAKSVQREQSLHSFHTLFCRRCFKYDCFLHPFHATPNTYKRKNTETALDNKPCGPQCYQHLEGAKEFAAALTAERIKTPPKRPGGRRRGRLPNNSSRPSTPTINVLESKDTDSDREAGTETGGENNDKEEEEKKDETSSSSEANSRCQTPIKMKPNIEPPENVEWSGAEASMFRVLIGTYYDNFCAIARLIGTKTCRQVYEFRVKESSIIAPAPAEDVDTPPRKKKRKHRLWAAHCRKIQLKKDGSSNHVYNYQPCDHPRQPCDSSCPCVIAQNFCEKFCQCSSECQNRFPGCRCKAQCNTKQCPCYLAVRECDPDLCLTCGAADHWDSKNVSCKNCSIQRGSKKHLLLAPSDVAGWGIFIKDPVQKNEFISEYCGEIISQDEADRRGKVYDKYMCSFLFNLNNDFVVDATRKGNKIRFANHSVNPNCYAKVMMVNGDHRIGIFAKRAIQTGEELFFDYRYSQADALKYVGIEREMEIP

Row | Structure (SMILES) | CC50 [1] [µM] | CC50 [2] [µM] | further results
1 | COc1cc2c(NCc3c(C)cc(C)[nH]c3=O)nc(N3CCN(C)CC3)nc2cc1OCCCN1CCCC1 | 60.1 | 67.2 | –
2 | COc1cc2c(NC3CCN(C(C)C)CC3)nc(C3CCCCC3)nc2cc1OCCCN1CCCC1 | 34.2 | 29.5 | Activity [3]: Active; Activity [4]: Active; Activity [5]: Active; Activity [6]: Active
3 | COc1cc2c(NCc3c(C)cc(C)[nH]c3=O)nc(N3CCCCC3)nc2cc1OCCCN1CCCC1 | 41.3 | 27 | –
4 | COc1cc2nc(N3CCCN(C)CC3)nc(NCc3c(C)cc(C)[nH]c3=O)c2cc1OC | 68.5 | 99.8 | IC50 [7]: 0.015 µM; IC50 [8]: 0.0533 µM
5 | COc1cc2c(NCc3c(C)cc(C)[nH]c3=O)nc(N(C)C)nc2cc1OCCCN1CCCC1 | 74.4 | 85 | –
6 | COc1cc2nc(N(C)CCN(C)C)nc(NCc3c(C)cc(C)[nH]c3=O)c2cc1OC | 84.9 | 85.7 | –
7 | COc1cc2nc(N3CCN(C)CC3)nc(NCc3c(C)cc(C)[nH]c3=O)c2cc1OC | 79.9 | 106 | –
8 | COc1cc2nc(N3CCOCC3)nc(NCc3c(C)cc(C)[nH]c3=O)c2cc1OC | 77.2 | 89.2 | –
9 | COc1cc2c(NCc3c(C)cc(C)[nH]c3=O)nc(N3CCCCCC3)nc2cc1OCCCN1CCCC1 | 23.5 | 35.7 | –
10 | COc1cc2c(NCc3c(C)cc(C)[nH]c3=O)nc(N3CCC(OC)CC3)nc2cc1OCCCN1CCCC1 | 40.1 | 61.6 | –
11 | CCN(c1cc(-c2ccc(CN3CCOCC3)cc2)cc(C(=O)NCc2c(C)cc(C)[nH]c2=O)c1C)C1CCOCC1 [TAZEMETOSTAT] | 245 | 116 | Activity [9]: Active; Activity [10]: Active; inhibition in vivo at 20 mg/kg [11]: 69.2%
12 | CCN1CCN(c2nc(NCc3c(C)cc(C)[nH]c3=O)c3cc(OC)c(OCCCN4CCCC4)cc3n2)CC1 | 22.7 | 53.6 | –
13 | CCN(CC)c1nc(NCc2c(C)cc(C)[nH]c2=O)c2cc(OC)c(OCCCN3CCCC3)cc2n1 | 82.5 | 87.7 | –
14 | COc1cc2c(NCc3c(C)cc(C)[nH]c3=O)nc(N(C)CCN(C)C)nc2cc1OCCCN1CCCC1 | 74.3 | 78.3 | –
15 | COc1cc2nc(N(C)CCCN(C)C)nc(NCc3c(C)cc(C)[nH]c3=O)c2cc1OC | 76 | 101 | –
16 | COc1cc2c(NCc3c(C)cc(C)[nH]c3=O)nc(N3CCOCC3)nc2cc1OCCCN1CCCC1 | 73.8 | 99.8 | –
17 | COc1cc2c(NCc3c(C)cc(C)[nH]c3=O)nc(N3CCCN(C)CC3)nc2cc1OCCCN1CCCC1 | 56.5 | 48.9 | –
18 | COc1cc2c(NCc3c(C)cc(C)[nH]c3=O)nc(N3CCCC3)nc2cc1OCCCN1CCCC1 | 75.7 | 90.2 | –
